The values below are quoted from earlier work in EP1072609A2, “Cytoprotective agents comprising prosaposin-related peptides” (Sakanaka, Masahiro, priority 1999, dated 2001).

Ends that are not written are not given here.

The subject of data set [1] is neurons in the ischemic penumbra of the cerebral cortex. The following applies: intracerebroventricular infusion.
For data set [2] the following is noted: intravenous administration.

For the compound `CC(C)=CCC[C@](C)(O[C@@H]1O[C@H](CO[C@@H]2O[C@H](CO)[C@@H](O)[C@H](O)[C@H]2O)[C@@H](O)[C@H](O)[C@H]1O)[C@H]1CC[C@]2(C)[C@@H]1[C@H](O)C[C@@H]1[C@@]3(C)CC[C@H](O[C@@H]4O[C@H](CO)[C@@H](O)[C@H](O)[C@H]4O[C@@H]4O[C@H](CO)[C@@H](O)[C@H](O)[C@H]4O)C(C)(C)[C@@H]3CC[C@]12C` [ginsenoside Rb1], in the data set on Bcl-xL, the “expression of Bcl-xL” value is recorded as “stimulates”. Moreover, in data set [1], the cortical infarction entry is “ameliorate” and the place navigation disability result is on record as “ameliorate”.
For LSELIINNATEELLIKGL [18-MP], the “share of intravenously administered peptide transferred into the brain” value in data set [2] is reported as “approximately 0.03%”.
